Assays:
Test in all cases: Pre-emergent herbicidal activity (Table A)
Assay type in all cases: in vivo
Wild Buckwheat = details: Fallopia convolvulus, pre-emergence, Wibw, 11.2 kg/ha, 10-14 days, read-out: herbicidal rating (% inhibition)
Description: (§1) Tables A and B summarize results of tests conducted to determine the pre-emergent herbicidal activity of the compounds of this invention. The herbicidal ratings used in Tables A and B were assigned according to a scale based on the percent inhibition of each plant species. The herbicide rating symbols in Tables A and B are defined as follows: […]
(§2) One set of pre-emergent tests was conducted as follows:
(§3) Topsoil was placed in a pan and compacted to a depth of 0.95 to 1.27 cm. from the top of the pan. A predetermined number of seeds of each of several monocotyledonous and dicotyledonous annual plant species and/or vegetative propagules of various perennial plant species were placed on top of the soil. The soil required to level fill a pan after seeding or adding vegetative propagules was weighed into another pan. A known amount of the test compound dissolved or suspended in an organic solvent or water and applied in acetone or water as a carrier was thoroughly mixed with this cover soil, and the herbicide/soil mixture was used as a cover layer for the previously prepared pan. In Table A below the amounts of active ingredient were all equivalent to an application rate of 11.2 kilograms/hectare (kg/ha). After treatment, the pans were moved to a greenhouse bench where they were watered as needed to give adequate moisture for germination and growth.
(§4) Approximately 10-14 days (usually 11 days) after planting and treating, the plants were observed and the results recorded.
(§5) The plant species usually regarded as weeds which were utilized in one set of pre-emergent activity tests, the data for which are shown in Table A, are identified by letter headings printed diagonally above the columns according to the following legend: […]

Annual Bluegrass = details: pre-emergence, Anbg, 11.2 kg/ha, 10-14 days, read-out: herbicidal rating (% inhibition)
Description: as §1, §2, §3, §4, §5

Indian Mustard = details: Brassica juncea, pre-emergence, Inmu, 11.2 kg/ha, 10-14 days, read-out: herbicidal rating (% inhibition)
Description: as §1, §2, §3, §4, §5

Seedling Johnsongrass = details: Sorghum halepense, pre-emergence, Sejg, 11.2 kg/ha, 10-14 days, read-out: herbicidal rating (% inhibition)
Description: as §1, §2, §3, §4, §5

Morningglory = details: Ipomoea, pre-emergence, Mogl, 11.2 kg/ha, 10-14 days, read-out: herbicidal rating (% inhibition)
In short: (§6)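 Seeds or vegetative propagules were set on topsoil compacted to 0.95 to 1.27 cm below the pan rim, then covered with soil thoroughly mixed with a known amount of test compound in acetone or water carrier. Ratings follow a scale of percent inhibition per species.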

Downy Brome = details: Bromus tectorum, pre-emergence, Dobr, 11.2 kg/ha, 10-14 days, read-out: herbicidal rating (% inhibition)
In short: as §6

Velvetleaf = details: Abutilon theophrasti, pre-emergence, Vele, 11.2 kg/ha, 10-14 days, read-out: herbicidal rating (% inhibition)
In short: as §6

Yellow Nutsedge = details: Cyperus, pre-emergence, Yens, 11.2 kg/ha, 10-14 days, read-out: herbicidal rating (% inhibition)
In short: as §6

Cocklebur = details: Xanthium strumarium, pre-emergence, Cobu, 11.2 kg/ha, 10-14 days, read-out: herbicidal rating (% inhibition)
In short: as §6

Barnyardgrass = details: Echinochloa crus-galli, pre-emergence, Bygr, 11.2 kg/ha, 10-14 days, read-out: herbicidal rating (% inhibition)
In short: as §6

SMILES	inhibition at 11200 g/ha (Wild Buckwheat) [%]	inhibition at 11200 g/ha (Annual Bluegrass) [%]	inhibition at 11200 g/ha (Indian Mustard) [%]	inhibition at 11200 g/ha (Seedling Johnsongrass) [%]	inhibition at 11200 g/ha (Morningglory) [%]	inhibition at 11200 g/ha (Downy Brome) [%]	inhibition at 11200 g/ha (Velvetleaf) [%]	inhibition at 11200 g/ha (Yellow Nutsedge) [%]	inhibition at 11200 g/ha (Cocklebur) [%]	inhibition at 11200 g/ha (Barnyardgrass) [%]
COC(=O)c1c(OC)nc(C(F)(F)F)c(C=O)c1CC1CC1 [Compound 115, 3-pyridinecarboxylic acid, 4-(cyclopropylmethyl)-5-formy1-2-methoxy-6-(trifluoromethyl)-, methyl ester]	50 to 74	75 to 100	75 to 100	75 to 100	50 to 74	75 to 100	50 to 74	25 to 49	0 to 24	75 to 100
COC(=O)c1c(OC)nc(C(F)(F)F)c(C2OCCCO2)c1CC(C)C [Compound 110, 3-pyridinecarboxylic acid, 5-(1,3-dioxan-2-yl)-2-methoxy-4-(2-methylpropyl)-6-(trifluoromethyl)-, methyl ester]	75 to 100	75 to 100	75 to 100	75 to 100	75 to 100	75 to 100	75 to 100	50 to 74	75 to 100	75 to 100
COC(=O)c1c(OC)nc(C(F)(F)F)c(C2OCC(=O)O2)c1CC(C)C (stereo not shown) [Compound 123, 3-pyridinecarboxylic acid, 2-methoxy-4-(2-methylpropyl)-5-(4-oxo-1,3-dioxolan-2-yl)-6-(trifluoromethyl)-, methyl ester]	75 to 100	75 to 100	75 to 100	75 to 100	25 to 49	75 to 100	25 to 49	0 to 24	0 to 24	75 to 100
COC(=O)c1c(OC)nc(C(F)(F)F)c(C(=O)Cl)c1C1CCC1 [Compound 138, 3-pyridinecarboxylic acid, 5-(chlorocarbonyl)-4-cyclobuty1-2-methoxy-6-(trifluoromethyl)-, methyl ester]	0 to 24	0 to 24	0 to 24	0 to 24	0 to 24	0 to 24	0 to 24	0 to 24	0 to 24	0 to 24
COc1nc(C(F)(F)F)c(CO)c(CC(C)C)c1C(=O)SC [Compound 134, 3-pyridinecarbothioic acid, 5-(hydroxymethyl)-2-methoxy-4-(2-methylpropyl)-6-(trifluoromethyl)-, S-methyl ester]	0 to 24	75 to 100	25 to 49	0 to 24	0 to 24	0 to 24	50 to 74	0 to 24	0 to 24	75 to 100
COC(=O)c1c(OC)nc(C(F)(F)F)c(C=NCCO)c1CC(C)C [Compound 128]	50 to 74	75 to 100	75 to 100	75 to 100	50 to 74	75 to 100	25 to 49	0 to 24	0 to 24	75 to 100
COC(=O)c1c(OC)nc(C(F)(F)F)c(C(=O)NNC(C)=O)c1CC(C)C [Compound 100, 3,5-pyridinedicarboxylic acid, 2-methoxy-4-(2-methylpropyl)-6-(trifluoromethyl)-, 3-methyl ester 5-(2-acetylhydrazide)]	0 to 24	75 to 100	0 to 24	0 to 24	0 to 24	0 to 24	0 to 24	0 to 24	0 to 24	0 to 24
COC(=O)c1c(OC)nc(C(F)(F)F)c(C(=O)n2ccc(F)n2)c1CC(C)C [Compound 102, 3-pyridinecarboxylic acid, 5-[(3-fluoro-1H-pyrazo1-1-yl)carbonyl]-2-methoxy-4-(2-methylpropyl)-6-(trifluoromethyl)-, methyl ester]	75 to 100	75 to 100	75 to 100	75 to 100	75 to 100	75 to 100	75 to 100	75 to 100	75 to 100	75 to 100
COC(=O)c1c(OC)nc(C(F)(F)F)c(C2OCCS2)c1CC(C)C (stereo not shown) [Compound 122, 3-pyridinecarboxylic acid, 2-methoxy-4-(2-methylpropyl)-5-(1,3-oxathiolan-2-yl)-6-(trifluoromethyl)-, methyl ester]	75 to 100	75 to 100	75 to 100	75 to 100	75 to 100	75 to 100	75 to 100	50 to 74	0 to 24	75 to 100
COC(=O)c1c(OC)nc(C(F)(F)F)c(-c2cnco2)c1CC(C)C [Compound 114, 3-pyridinecarboxylic acid, 2-methoxy-4-(2-methylpropyl)-5-(5-oxazolyl)-6-(trifluoromethyl)-, methyl ester]	75 to 100	75 to 100	75 to 100	75 to 100	50 to 74	75 to 100	75 to 100	25 to 49	0 to 24	75 to 100
COC(=O)c1c(OC)nc(C(F)(F)F)c(-c2nccs2)c1CC(C)C [Compound 129, 3-pyridinecarboxylic acid, 2-methoxy-4-(2-methylpropyl)-5-(2-thiazolyl)-6-(trifluoromethyl)-, methyl ester]	75 to 100	75 to 100	75 to 100	75 to 100	75 to 100	75 to 100	75 to 100	75 to 100	50 to 74	75 to 100
COc1nc(C(F)(F)F)c(C(=O)Cl)c(CC(C)C)c1C(=O)SC [Compound 133, 3-pyridinecarbothioic acid, 5-(chlorocarbonyl)-2-methoxy-4-(2-methylpropyl)-6-(trifluoromethyl)-, S-methyl ester]	0 to 24	0 to 24	25 to 49	0 to 24	0 to 24	0 to 24	0 to 24	0 to 24	0 to 24	0 to 24
COC(=O)c1c(OC)nc(C(F)(F)F)c(C2OCCO2)c1CC1CC1 [Compound 118, 3-pyridinecarboxylic acid, 4-(cyclopropylmethyl)-5-(1,3-dioxolan-2-yl)-2-methoxy-6-(trifluoromethyl)-, methyl ester]	75 to 100	75 to 100	75 to 100	75 to 100	75 to 100	75 to 100	75 to 100	75 to 100	0 to 24	75 to 100

Source: patent US5391540A, “Substituted pyridine compounds” (Rohm and Haas Company, priority 1993, dated 1995)
